The values that follow come from article PMC7407822, “Aldose Reductase Differential Inhibitors in Green Tea” (Biomolecules, 2020).

The target in assay [1] is T1, human recombinant AKR1B1 (Homo sapiens, UniProt P15121).
T1 construct: made in house
The experiment in a line: AKR1B1 activity assay (NADPH oxidation at 340 nm), dose-dependent inhibition, IC50. The assay is classed as biochemical. The procedure:
One unit of enzyme activity is the amount of enzyme that catalyzes the conversion of 1 µmol of substrate/min in the above assay conditions.
The human recombinant AKR1B1 was expressed and purified to electrophoretic homogeneity, as previously described. […] The purified enzyme was stored at −80 °C in a 10 mM sodium phosphate buffer pH 7.0 containing 2 mM DTT and 30% (w/v) glycerol. Before use, AKR1B1 was extensively dialyzed against 10 mM of a sodium phosphate buffer pH 7.0.

The target of assay [2] is T1, human recombinant AKR1B1. The experiment in a line: Steady state inhibition kinetic analysis (Hanes-Woolf and secondary plots). The assay is classed as biochemical. The following applies: for Ki / Ki’ (appK’i, ESI complex dissociation constant): mean ± SD; for Ki: read-out: Ki (appKi, EI complex dissociation constant). The method, then: The AKR1B1 activity was determined at 37 °C, as previously described, monitoring the decrease in absorbance at 340 nm linked to NADPH oxidation (ε340 = 6.22 mM^−1.cm^−1) using a Biochrom Libra S60 spectrophotometer. The standard assay mixture (0.7 mL) contained in a 0.25 M sodium phosphate buffer pH 6.8, 0.18 mM NADPH, 0.4 M ammonium sulfate, 0.5 mM EDTA, and 4.7 mM GAL. One unit of enzyme activity is the amount of enzyme that catalyzes the conversion of 1 µmol of substrate/min in the above assay conditions.
The kinetic analysis of the experimental rate measurements with different substrates (S) in the presence of inhibitors (I) was performed on the classical inhibition model of action. Here, (I) is considered to intervene into a steady state condition of the reaction, being free to interact with the free enzyme (E), the ES complex or with both, through a rapid equilibrium. Data were analyzed by Hanes-Woolf plots. The apparent dissociation constants ^appKi’ (for the ESI complex) and ^appKi (for the EI complex) were determined from secondary plots of 1/^appVmax and ^appKM/^appVmax as a function of the inhibitor concentration, respectively.

In assay [3] the test system is AKR1B1. The note with it: known inhibitor co-crystallized with AKR1B1, PDB code 4IGS; cited from earlier work.
Where [4] appears, read: 8 mM L-idose, 0.03 mM HNE, 0.07 mM GSHNE.

Read-outs that look alike come from different tables or passages of the source.

Usually IC50 stands for the concentration at which inhibition is half-maximal. For orientation: Ki means the dissociation constant of the complex between target and ligand, obtained from inhibition or displacement. In the case of `Oc1cc(O)c2c(c1)O[C@H](c1cc(O)c(O)c(O)c1)[C@H](O)C2` [EGC, epigallocatechin], the “ARDI action (differential inhibition of L-idose and GSHNE reduction with respect to HNE)” value in assay [1] (setting [4]) is recorded as “completely ineffective as ARDI”. In addition, the IC50 in assay [1] (read-out: IC50 values, unaffected by the nature of the substrate) was in the range of 500 to 700 µM. For the same compound, in assay [2] (substrate GSHNE), the “type (model) of inhibition” value is on record as “competitive inhibitor” and the Ki was 553 ± 87 µM. Besides, in assay [2] (substrate HNE), the “Ki/Ki’” value was 2.5; the “Ki’ (appK’i, ESI complex dissociation constant)” value is recorded as 686 ± 63 µM; the Ki is 1680 ± 289 µM. Also, in assay [2] (substrate L-idose), the “Ki/Ki’” value was 2.5 and the “Ki’ (appK’i, ESI complex dissociation constant)” value was 496 ± 35 µM.
Regarding `O=C(O[C@@H]1Cc2c(O)cc(O)cc2O[C@@H]1c1cc(O)c(O)c(O)c1)c1cc(O)c(O)c(O)c1` [EGCG, epigallocatechin gallate], the “residual activity for HNE reduction, of activity in the absence of inhibitor” value in assay [1] (0.03 mM HNE, at EGCG concentrations equal to its IC50 for L-idose and GSHNE ([…] and […])) is given as 80–90%. The “ARDI action (differential inhibition of L-idose and GSHNE reduction with respect to HNE)” value in assay [1] (setting [4]) was “comparable significant (p < 0.0001) ARDI action”. The figures for the “type (model) of inhibition” value in assay [2] (substrate GSHNE), in assay [2] (substrate HNE) and in assay [2] (substrate L-idose) were “apparently purely non-competitive type of inhibition”, “typical uncompetitive model of action” and “mixed type of inhibition”, respectively. Moreover, the “Ki’ (appK’i, ESI complex dissociation constant)” value in assay [2] (substrate GSHNE) came out at 144 ± 22 µM; in assay [2] (substrate HNE) it was 116 ± 11 µM; in assay [2] (substrate L-idose), 61 ± 9 µM.
Take `O=C(O)c1cc(O)c(O)c(O)c1` [GA, gallic acid]: the “ARDI action (differential inhibition of L-idose and GSHNE reduction with respect to HNE)” value in assay [1] (setting [4]) is “still able to act as an ARDI”. The 50% inhibitory concentration (IC50) stood at 2500 µM in assay [1] (IC50, GSHNE reduction, 0.07 mM GSHNE, 8 mU AKR1B1, 37 °C, pH 6.8); 586 µM in assay [1] (IC50, HNE reduction, 0.03 mM HNE, 8 mU AKR1B1, 37 °C, pH 6.8); 196 µM in assay [1] (IC50, L-idose reduction, 8 mM L-idose, 8 mU AKR1B1, 37 °C, pH 6.8). The “type (model) of inhibition” value in assay [2] (substrate GSHNE), in assay [2] (substrate HNE) and in assay [2] (substrate L-idose) was “apparent uncompetitive model of action” each time. The “Ki’ (appK’i, ESI complex dissociation constant)” value in assay [2] (substrate GSHNE) turned out to be 793 ± 102 µM; in assay [2] (substrate HNE), 253 ± 23 µM; in assay [2] (substrate L-idose) it was 103 ± 7 µM.
As for `Oc1c(F)c(F)c(-c2c(F)c(F)c(O)c(F)c2F)c(F)c1F` [JF0064], the “activity as AKR1B1 inhibitor” value in assay [3] is listed as “very active at sub micromolar levels”.
